Laboratory results: patent publication US6482921B1, “Uridyl peptide antibiotic (UPA) derivatives, their synthesis and use” (Essential Therapeutics, Inc., priority 1999, dated 2002)
Values after ≈ are worked out from the molar mass of the structure shown.

What was measured:
[1] = test system: Escherichia Coli MC 4100 AcrAB UPA3r; test: MIC broth microdilution, E. coli MC 4100 AcrAB UPA3r (ΔAcrAB, UPA resistant); format: cell-based; settings: E. coli AcrAB UPA3^r
[2] = test system: Pseudomonas aeruginosa PAM 1154; test: MIC broth microdilution, P. aeruginosa PAM 1154 (OprM::Hg); format: cell-based; settings: P. aeruginosa PAM 1154 OprM::Hg
[3] = test system: Mycobacterium smegmatis ATCC 19420; test: MIC broth microdilution, M. smegmatis ATCC 19420; settings: 72 hours at 35° C., CAMHB
[4] = test system: Mycobacterium fortuitum ATCC 6841; test: MIC broth microdilution, M. fortuitum ATCC 6841; settings: 72 hours at 35° C., CAMHB
[5] = test system: Escherichia Coli MC 4100 AcrAB; test: MIC broth microdilution, E. coli MC 4100 AcrAB (ΔAcrAB); format: cell-based; settings: E. coli AcrAB
[6] = test system: Pseudomonas aeruginosa PAM 1135; test: MIC broth microdilution, P. aeruginosa PAM 1135 (high level UPA resistance); format: cell-based; settings: P. aeruginosa PAM 1135 UPA1^r
[7] = test system: Pseudomonas aeruginosa PAM 1323; test: MIC broth microdilution, P. aeruginosa PAM 1323 (medium level UPA resistance); format: cell-based
[8] = test system: Pasteurella multocida pm002; test: MIC broth microdilution, P. multocida pm002 (wild type); format: cell-based
[9] = test system: Staphylococcus aureus 8325-4; test: MIC broth microdilution, S. aureus 8325-4 (wild type); format: cell-based; settings: S. aureus 8325-4
[10] = test system: Staphylococcus aureus ATCC 29213; test: MIC broth microdilution, S. aureus ATCC 29213 (wild type); format: cell-based; settings: S. aureus ATCC 29213
Escherichia Coli MC 4100 = test: MIC broth microdilution, E. coli MC 4100 (wild type); format: cell-based; settings: E. coli MC 4100
[11] = test system: Pseudomonas aeruginosa PAM 1020; test: MIC broth microdilution, P. aeruginosa PAM 1020 (wild type); format: cell-based; settings: P. aeruginosa PAM 1020

| SMILES | MIC (μg/ml) Broth microdilution [1] [µg/mL] | MIC (μg/ml) Broth microdilution [2] [µg/mL] | MIC Broth microdilution M. smegmatis ATCC19420 [3] [µg/mL] | MIC Broth microdilution M. fortuitum ATCC 6841 [4] [µg/mL] | MIC (μg/ml) Broth microdilution [5] [µg/mL] | MIC (μg/ml) Broth microdilution [6] [µg/mL] | MIC (μg/ml) Broth microdilution [7] [µg/mL] | MIC (μg/ml) Broth microdilution [8] [µg/mL] | MIC (μg/ml) Broth microdilution [9] [µg/mL] | MIC (μg/ml) Broth microdilution [10] [µg/mL] | MIC (μg/ml) Broth microdilution (Escherichia Coli MC 4100) [µg/mL] | MIC (μg/ml) Broth microdilution [11] [µg/mL] |
| --- | --- | --- | --- | --- | --- | --- | --- | --- | --- | --- | --- | --- |
| CC(C)CC(N)C(=O)N(C)C(C)C(NC(=O)C(Cc1ccc(F)cc1)NC(=O)NC(Cc1c[nH]c2ccccc12)C(=O)O)C(=O)NCC1CC(O)C(n2ccc(=O)[nH]c2=O)O1 [Compound 117, 1-[5′-[(2S,3S)-N^2-[N-[[(1S)-1-Carboxy-2-indol-3-ylethyl]carbamoyl]-L-4-fluorophenylalanyl]-N^3-L-leucyl-N^3-methyl-2,3-diaminobutyramido]-3′,5′-dideoxy-α-L-arabinofuranosyl]uracil] | 32 (≈ 37.7 µM) | 64 (≈ 75.3 µM) | 8 (≈ 9.41 µM) | 64 (≈ 75.3 µM) | <1 | >512 | >512 | 256 (≈ 301 µM) | >512 | >512 | >512 | 64 (≈ 75.3 µM) |
| C[C@@H]([C@H](NC(=O)[C@H](Cc1ccccc1)NC(=O)N[C@@H](Cc1c[nH]c2ccccc12)C(=O)O)C(=O)NC[C@H]1C[C@@H](O)[C@H](n2ccc(=O)[nH]c2=O)O1)N(C)C(=O)CN [Compound 128, 1-[5′-[(2S,3S)-N^2-[N-[[(1S)-1-Carboxy-2-indol-3-ylethyl]carbamoyl]-L-phenylalanyl]-N^3-glycyl-N^3-methyl-2,3-diaminobutyramido]-3′,5′-dideoxy-α-L-arabinofuranosyl]uracil] | 16 (≈ 20.6 µM) | <1 | 4 (≈ 5.16 µM) | 64 (≈ 82.5 µM) | 2 (≈ 2.58 µM) | >512 | >512 | 64 (≈ 82.5 µM) | 256 (≈ 330 µM) | >512 | 256 (≈ 330 µM) | 8 (≈ 10.3 µM) |
| CC(N)C(=O)N(C)C(C)C(NC(=O)C(Cc1csc2ccccc12)NC(=O)NC(Cc1ccc(O)cc1)C(=O)O)C(=O)NCC1CC(O)C(n2ccc(=O)[nH]c2=O)O1 [Compound 130, 1-[5′-[(2S,3S)-N^3-L-Alanyl-N^2-[N-[[(1S)-1-carboxy-4-hydroxyphenethyl]carbamoyl]-L-benzothienylalanyl]-N^3-methyl-2,3-diaminobutyramidol-3′,5′-dideoxy-α-L-arabinofuranosyl]uracil] | 16 (≈ 19.4 µM) | 16 (≈ 19.4 µM) | 8 (≈ 9.72 µM) | 32 (≈ 38.9 µM) | 8 (≈ 9.72 µM) | >512 | >512 | 512 (≈ 622 µM) | 256 (≈ 311 µM) | 128 (≈ 156 µM) | 64 (≈ 77.8 µM) | 64 (≈ 77.8 µM) |
| CC(N)C(=O)N(C)C(C)C(NC(=O)C(Cc1ccc(I)cc1)NC(=O)NC(Cc1ccc(O)cc1)C(=O)O)C(=O)NCC1CC(O)C(n2ccc(=O)[nH]c2=O)O1 [Compound 134, 1-[5′-[(2S,3S)-N^3-L-Alanyl-N^2-[N-[[(1S)-1-carboxy-4-hydroxyphenethyl]carbamoyl]-L-4-iodophenylalanyl]-N^3-methyl-2,3-diaminobutyramido]-3′,5′-dideoxy-α-L-arabinofuranosyl]uracil] | 32 (≈ 35.8 µM) | 32 (≈ 35.8 µM) | 16 (≈ 17.9 µM) | 32 (≈ 35.8 µM) | <1 | >512 | >512 | >512 | 512 (≈ 574 µM) | 512 (≈ 574 µM) | 128 (≈ 143 µM) | 256 (≈ 287 µM) |
| CC(N)C(=O)N(C)C(C)C(NC(=O)C(Cc1ccc(Cl)cc1)NC(=O)NC(Cc1ccc(O)cc1)C(=O)O)C(=O)NCC1CC(O)C(n2ccc(=O)[nH]c2=O)O1 [Compound 135, 1-[5′-[(2S,3S)-N^3-L-Alanyl-N^2-[N-[[(1S)-1-carboxy-4-hydroxyphenethyl]carbamoyl]-L-4-chlorophenylalanyl]-N^3-methyl-2,3-diaminobutyramido]-3′,5′-dideoxy-α-L-arabinofuranosyl]uracil] | 2 (≈ 2.5 µM) | 16 (≈ 20 µM) | 16 (≈ 20 µM) | 64 (≈ 79.9 µM) | <1 | >512 | >512 | 512 (≈ 639 µM) | >512 | 512 (≈ 639 µM) | 8 (≈ 9.98 µM) | 64 (≈ 79.9 µM) |
| CC(N)C(=O)N(C)C(C)C(NC(=O)C(CC1CCCCC1)NC(=O)NC(Cc1c[nH]c2ccccc12)C(=O)O)C(=O)NCC1CC(O)C(n2ccc(=O)[nH]c2=O)O1 [Compound 136, 1-[5-(2S 3S)-N^3-L-Alanyl-N^2-[N-[[(1S)-1-carboxy-2-indol-3-ylethyl]carbamoyl]-L-cyclohexylalanyl]-N^3-methyl-2,3-diaminobutyramido]-3′,5′-dideoxy-α-L-arabinofuranosyl]uracil] | 64 (≈ 80.4 µM) | 64 (≈ 80.4 µM) | 8 (≈ 10.1 µM) | 128 (≈ 161 µM) | 4 (≈ 5.03 µM) | >512 | >512 | >512 | >512 | >512 | >512 | 128 (≈ 161 µM) |
| CC(C(NC(=O)C(Cc1ccccc1)NC(=O)NC(Cc1c[nH]c2ccccc12)C(=O)O)C(=O)NCC1CC(O)C(n2ccc(=O)[nH]c2=O)O1)N(C)C(=O)C(N)Cc1ccccc1 [Compound 156, 1-[5′-[(2S,3S)-N^2-[N-[[(1S)-1-Carboxy-2-indol-3-ylethyl]carbamoyl]-L-phenylalanyl]-N^3-L-phenylalanyl-N^3-methyl-2,3-diaminobutyramido]-3′,5′-dideoxy-α-L-arabinofuranosyl]uracil] | 512 (≈ 591 µM) | 32 (≈ 37 µM) | 16 (≈ 18.5 µM) | 256 (≈ 296 µM) | 4 (≈ 4.62 µM) | 256 (≈ 296 µM) | 256 (≈ 296 µM) | 256 (≈ 296 µM) | >512 | >512 | 512 (≈ 591 µM) | 32 (≈ 37 µM) |
| CSCCC(N)C(=O)N(C)C(C)C(NC(=O)C(C)NC(=O)NC(Cc1c[nH]c2ccccc12)C(=O)O)C(=O)NCC1CC(O)C(n2ccc(=O)[nH]c2=O)O1 [Compound 168, 1-[5′-[(2S,3S)-N^2-[N-[[(1S)-1-Carboxy-2-indol-3-ylethyl]carbamoyl]-L-alanyl]-N^3-L-methionyl-N^3-methyl-2,3-diaminobutyramido]-3′,5′-dideoxy-α-L-arabinofuranosyl]uracil] | 256 (≈ 331 µM) | 8 (≈ 10.3 µM) | – | – | 4 (≈ 5.17 µM) | >512 | >512 | 256 (≈ 331 µM) | >512 | >512 | >512 | 64 (≈ 82.7 µM) |
| CC(C)[C@H](NC(=O)N[C@@H](Cc1c[nH]c2ccccc12)C(=O)O)C(=O)N[C@H](C(=O)NC[C@H]1C[C@@H](O)[C@H](n2ccc(=O)[nH]c2=O)O1)[C@H](C)N(C)C(=O)[C@H](C)N [Compound 169, 1-[5′-[(2S,3S)-N^3-L-Alanyl-N^2-[N-[[(1S)-1-carboxy-2-indol-3-ylethyl]carbamoyl]-L-valinyl]-N^3-methyl-2,3-diaminobutyramido]-3′,5′-dideoxy-α-L-arabinofuranosyl]uracil] | 32 (≈ 43.1 µM) | 128 (≈ 173 µM) | – | – | 2 (≈ 2.7 µM) | >512 | 64 (≈ 86.3 µM) | 128 (≈ 173 µM) | >512 | >512 | 256 (≈ 345 µM) | 128 (≈ 173 µM) |
